Assay [1] has as its system obstructed kidney after UUO. The assay is described as follows: Kidney damage after unilateral ureteral obstruction (HNE, TUNEL, ED1 macrophages, Masson's trichrome). The assay is classed as in vivo, Sprague-Dawley rats. The note with it: rats, SS-31 1 mg/kg ip one day before UUO and daily for 14 days. The procedure: Rats were then killed, kidneys removed, embedded in paraffin and sectioned. Slides were incubated with anti-HNE rabbit IgG and a biotin-linked anti-rabbit IgG was used as secondary antibody. The slides were developed with DAB. Lipid peroxidation, which was increased by UUO, was reduced by SS-31 treatment (FIG. 8).
Rats were then killed, kidneys removed, embedded in paraffin and sectioned. To quantitate nuclei with fragmented DNA, the TUNEL assay were performed with in situ TUNEL kit (Intergen, Purchase, N.Y.). Slides were developed with DAB and counterstained with 10% hematoxylin.
Rats were treated with either saline (n=6) or SS-31 (1 mg/kg ip, n=6) one day prior to induction of UUO, and once a day for 14 days after UUO. Rats were then killed, kidneys removed, embedded in paraffin and sectioned. Slides were treated with monoclonal antibody for ED1 macrophage (1:75; Serotec). Horseradish-peroxidase-linked rabbit anti-mouse secondary antibody (Dako) was used for macrophage detection. Sections were then counterstained with 10% hematoxylin.
Rats were treated with either saline (n=6) or SS-31 (1 mg/kg ip, n=6) one day prior to induction of UUO, and once a day for 14 days after UUO. Rats were then killed, kidneys removed, embedded in paraffin and sectioned. Slides were stained with hematoxylin and eosin and Masson's trichome for interstitial fibrosis (blue stain).

For assay [2], the system named is CD36. The assay is described as follows: CD36 protein expression by western blot in mouse peritoneal macrophages. It counts as cell-based. The conditions noted are these: P<0.01. From the text: Other controls included CD36 expression from mouse heart (H) and macrophages obtained from CD36 knockout mice (KO). The amount of CD36 protein was normalized to β-actin.

Assay [3] relates to CD36. The assay is described as follows: oxLDL-induced CD36 mRNA expression in mouse peritoneal macrophages. The assay is classed as cell-based. Here is the method:
CD36 expression is regulated at the transcriptional level by various cellular stimuli, including glucose and oxLDL. Macrophages were harvested from mice peritoneal cavity and culture overnight in the absence or presence of oxLDL (50 μg/ml) for 48 h.

For assay [4], the system named is mouse peritoneal macrophages. The assay is described as follows: oxLDL-induced apoptosis of macrophages. The assay is classed as cell-based. The note with it: SS-31 1 nM concurrent with oxLDL (oxLDL alone 32.8%, no oxLDL 6.7%). Here is the method:
Incubation of macrophages with oxLDL increased apoptotic cells from 6.7% to 32.8%.

Entries after “also recorded” stand apart in the source; their conditions may differ.

Consider D-Arg-2′6′Dmt-Lys-Phe-NH2 [SS-31], for which the tubular dilation entry in assay [1] was “Tubular dilation was also observed”. In addition, in assay [1] (P<0.001, 1 mg/kg), the “number of apoptotic cells (TUNEL) in obstructed kidney” value was “significantly reduced; also recorded: reduced tubular cell apoptosis”. Moreover, in assay [1] (P<0.05, 1 mg/kg), the “interstitial fibrosis in obstructed kidney” value is on record as “significantly less fibrosis; also recorded: reduced interstitial fibrosis” and the “macrophage infiltration (ED1) in obstructed kidney” value was “significantly reduced; also recorded: reduced macrophage infiltration”. Also, the “lipid peroxidation (HNE stain) in obstructed kidney” value in assay [1] (vs saline, 1 mg/kg) is on record as “significantly less HNE stain; also recorded: reduces lipid peroxidation”. For the same substance, the “oxLDL-induced upregulation of CD36 protein expression” value in assay [2] (SS-31 1 μM concurrent with 25 μg/ml oxLDL, 48 h) is “significantly inhibited the upregulation of CD36 protein expression; also recorded: reduced”. In assay [2] (SS-31 1 μM, no oxLDL, normalized to β-actin), the “CD36 protein expression versus vehicle control” value is given as “significantly reduced CD36 protein expression”. In assay [3] (SS-31 10 nM or 1 μM, oxLDL 50 μg/ml, 48 h), the “oxLDL-induced up-regulation of CD36 mRNA” value is listed as “abolished the up-regulation of CD36; also recorded: reduced oxLDL-induced CD36 mRNA expression”. Moreover, the “CD36 expression, peptide by itself” value in assay [3] (SS-31 alone, without oxLDL) is recorded as “had no effect on CD36 expression”. Further, the “percentage of apoptotic cells induced by oxLDL” value in assay [4] was 20.8%.

Values taken from US11447523B2, “Methods for reducing CD36 expression” (Cornell Research Foundation, Inc., priority 2005, dated 2022).
